Measured values: ChEMBL document CHEMBL4428063, “Novel Pyrimidine Toll-like Receptor 7 and 8 Dual Agonists to Treat Hepatitis B Virus” (J Med Chem, 2016)

Assays:
[1] = biological target: T1, Toll-like receptor 8 (Homo sapiens) (UniProt Q9NR97); experiment: Agonist activity at human TLR8 expressed in HEK293 cells assessed as measured after 6 hrs by NF-kappaB luciferase reporter gene assay; format: cell-based
T1 sequence (whole entry): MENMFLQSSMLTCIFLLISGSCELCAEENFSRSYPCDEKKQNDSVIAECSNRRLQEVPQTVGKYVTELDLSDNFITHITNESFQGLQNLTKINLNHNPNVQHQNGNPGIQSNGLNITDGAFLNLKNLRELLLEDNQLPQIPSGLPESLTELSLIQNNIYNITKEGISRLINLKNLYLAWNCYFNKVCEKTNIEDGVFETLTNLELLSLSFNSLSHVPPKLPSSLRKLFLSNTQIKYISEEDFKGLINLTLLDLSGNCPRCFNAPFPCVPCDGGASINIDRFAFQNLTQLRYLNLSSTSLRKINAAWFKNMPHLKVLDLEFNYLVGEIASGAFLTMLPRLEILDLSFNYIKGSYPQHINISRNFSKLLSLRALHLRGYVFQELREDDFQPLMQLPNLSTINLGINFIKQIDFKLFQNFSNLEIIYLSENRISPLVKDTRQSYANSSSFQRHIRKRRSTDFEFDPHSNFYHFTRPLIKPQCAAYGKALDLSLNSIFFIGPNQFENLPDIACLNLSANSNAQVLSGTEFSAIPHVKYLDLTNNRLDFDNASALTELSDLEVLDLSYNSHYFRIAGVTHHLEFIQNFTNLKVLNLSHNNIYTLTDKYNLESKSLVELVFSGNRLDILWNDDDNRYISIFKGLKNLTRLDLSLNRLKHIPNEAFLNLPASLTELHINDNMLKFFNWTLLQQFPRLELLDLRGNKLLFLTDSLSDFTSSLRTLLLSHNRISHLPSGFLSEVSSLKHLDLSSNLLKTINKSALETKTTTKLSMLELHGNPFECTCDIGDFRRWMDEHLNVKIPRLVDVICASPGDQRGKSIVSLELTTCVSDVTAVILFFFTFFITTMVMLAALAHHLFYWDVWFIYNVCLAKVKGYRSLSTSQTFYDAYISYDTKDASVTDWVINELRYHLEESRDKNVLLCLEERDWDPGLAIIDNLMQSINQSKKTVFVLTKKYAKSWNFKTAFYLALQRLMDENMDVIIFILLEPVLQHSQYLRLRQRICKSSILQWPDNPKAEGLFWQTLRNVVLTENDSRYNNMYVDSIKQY

[2] = biological target: T2, Toll-like receptor 7 (Homo sapiens) (UniProt Q9NYK1); experiment: Agonist activity at human TLR7 expressed in HEK293 cells measured after 6 hrs by NF-kappaB luciferase reporter gene assay; format: cell-based
T2 sequence (whole entry): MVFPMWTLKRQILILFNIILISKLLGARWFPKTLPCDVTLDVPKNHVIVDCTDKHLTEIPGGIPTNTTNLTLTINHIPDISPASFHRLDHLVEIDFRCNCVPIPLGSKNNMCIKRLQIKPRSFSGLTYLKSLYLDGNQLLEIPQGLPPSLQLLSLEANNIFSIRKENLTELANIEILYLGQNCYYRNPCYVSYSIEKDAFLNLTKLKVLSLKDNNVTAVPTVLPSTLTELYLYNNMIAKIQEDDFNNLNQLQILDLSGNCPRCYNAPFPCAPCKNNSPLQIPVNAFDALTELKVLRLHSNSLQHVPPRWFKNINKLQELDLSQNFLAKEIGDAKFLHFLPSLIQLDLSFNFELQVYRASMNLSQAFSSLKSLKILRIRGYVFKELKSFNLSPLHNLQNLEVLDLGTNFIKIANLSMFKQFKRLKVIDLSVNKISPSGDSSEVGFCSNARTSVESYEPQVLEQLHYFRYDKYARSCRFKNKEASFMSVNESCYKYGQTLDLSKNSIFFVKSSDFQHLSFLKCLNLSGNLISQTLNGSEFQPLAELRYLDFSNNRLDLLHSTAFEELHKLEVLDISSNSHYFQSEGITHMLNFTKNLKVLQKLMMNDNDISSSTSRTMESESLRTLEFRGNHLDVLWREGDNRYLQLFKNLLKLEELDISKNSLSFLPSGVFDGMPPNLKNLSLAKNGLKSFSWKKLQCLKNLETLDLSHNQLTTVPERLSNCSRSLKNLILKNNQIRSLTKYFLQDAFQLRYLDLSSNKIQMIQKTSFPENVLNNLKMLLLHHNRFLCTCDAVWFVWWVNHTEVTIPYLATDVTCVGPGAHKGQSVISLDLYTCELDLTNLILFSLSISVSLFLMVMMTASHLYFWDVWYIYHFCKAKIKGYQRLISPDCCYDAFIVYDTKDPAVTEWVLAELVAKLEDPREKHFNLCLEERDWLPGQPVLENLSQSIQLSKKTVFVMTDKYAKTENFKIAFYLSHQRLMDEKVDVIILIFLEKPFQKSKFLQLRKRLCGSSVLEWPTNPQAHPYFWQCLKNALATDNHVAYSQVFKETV

[3] = biological target: T2, Toll-like receptor 7 (Homo sapiens); experiment: Activation of TLR7 in human PBMCs incubated for overnight duration followed by compound-treated cell supernatant conditioned media transfer to HCV1b transfected human HuH7-luc/neo replicon cells assessed as induction of INFalpha-mediated suppression of virus growth by firefly-luciferase reporter gene assay
[4] = system: HEK293; experiment: Agonist activity at human TLR7-dLRR2 mutant expressed in HEK293 cells measured after 6 hrs by NF-kappaB luciferase reporter gene assay; format: cell-based

Structure (SMILES)	LED [1] [µM]	LED [2] [µM]	LED [3] [µM]	LED [4] [µM]
CCCCNc1nc(N)ncc1OCc1ccccc1	2.4	0.9	0.39	–
CCC(C)[C@H](CCO)Nc1nc(N)ncc1OC (some centres undefined)	2.6	10.4	2.2	–
CCCC(C)Nc1nc(N)ncc1OC (racemic)	2.8	> 25	1.7	–
CCCCNc1nc(N)ncc1OCc1cnn(C)c1	13.7	7	–	–
COc1cnc(N)nc1NCCC1CC1	20.9	> 25	6.8	–
COc1cnc(N)nc1N[C@H](CCO)CC(C)C	2.3	10.8	7.5	–
CCC[C@@H](CO)Nc1nc(N)ncc1OC	0.25	8.4	0.4	–
CCCCNc1nc(N)ncc1OCCC	4.5	6.2	4.8	–
CCCCNc1nc(N)ncc1OCc1nc(C)oc1C	1.58	0.46	–	–
CCCCNc1nc(N)ncc1OCCCc1ccccc1	7.9	1.5	0.25	–
CCCCNc1nc(N)ncc1OCc1ncco1	3.6	2.87	–	–
CCCCNc1nc(N)ncc1OCc1csc(C)n1	0.74	0.29	0.07	–
CCCCNc1nc(N)ncc1OC(C)C	0.7	10	0.5	–
CCCCNc1nc(N)ncc1OCc1cc2ccccn2n1	1.3	0.21	0.037	–
CCC[C@H](CO)Nc1nc(N)ncc1OC	9	> 25	–	–
CCCCNc1nc(N)nc(C)c1OCc1ccccc1	7.5	18	–	–
CCCCNc1nc(N)ncc1OCc1nc2ccccc2[nH]1	0.65	0.032	0.012	–
COc1cnc(N)nc1N[C@H](CO)CC(C)C	16	> 25	11	–

Structure (SMILES)	LED [1] [µM]	LED [2] [µM]	LED [3] [µM]	LED [4] [µM]
CCCCNc1nc(N)ncc1OCc1c(C)noc1C	1	3.1	0.38	–
CCCCNc1nc(N)ncc1OCc1nccc(OC)c1OC	0.6	0.13	0.022	–
COc1cnc(N)nc1NCCCC(F)(F)F	6.6	6.5	1.6	–
CCC[C@@H](CCO)Nc1nc(N)ncc1OC	1.4	7.3	0.8	–
C=CCNc1nc(N)ncc1OC	8.5	> 25	6.2	–
CCCCNc1nc(N)ncc1OCC	1.1	4.7	–	1.6
CC[C@H](C)[C@@H](CO)Nc1nc(N)ncc1OC	0.66	17.8	1.7	–
CCCCNc1nc(N)ncc1OCc1nc2ccccc2s1	2.6	0.28	0.11	–
CCCCNc1nc(N)ncc1OCc1ccc2ccccc2n1	0.89	0.3	0.09	–
CC[C@H](C)CNc1nc(N)ncc1OC	> 25	> 25	> 24	–
CCCCNc1nc(N)ncc1OCc1cc(C)nn1C	0.92	0.7	0.39	–
CCCCNc1nc(N)ncc1OCc1nn(C)c2ccccc12	0.18	0.014	0.011	–
CCCCNc1nc(N)ncc1OCc1nccc2ccccc12	0.14	0.008	0.003	–
CCCCCNc1nc(N)ncc1OCC	3.2	6	–	–
CCCCNc1nc(N)ncc1OCc1cnccn1	2.28	0.51	0.16	–
CCCCNc1nc(N)ncc1OCc1cccnn1	0.83	0.52	0.12	–
CCCC[C@@H](CO)Nc1nc(N)ncc1OC	0.39	8.01	0.4	–
